Experimental data: US20210387954A1, “OXADIAZOLES AS FUNGICIDES” (PI INDUSTRIES LIMITED, priority 2018, published 2021)

Each compound was assayed on Corynespora cassicola (assay: Corynespora cassicola (leaf spot of tomato) in vitro radial growth test on Potato Dextrose Agar). Details: 300 ppm; radial growth after seven days at 25° C., 70% relative humidity.
Assay type: cell-based
In the case of `O=S(=O)(Nc1ccc(Cc2noc(C(F)(F)F)n2)cc1)c1ccccc1` [Compound 68, N-(4-((5-(trifluoromethyl)-1,2,4-oxadiazol-3-yl)methyl)phenyl)benzenesulfonamide], the “control compared to the untreated check” value is reported as over 70%.

These compounds were tested on Phakopsora pachyrhizi (assay: Phakopsora pachyrhizi test in soybean (greenhouse, preventive)). Details: 24 h, soybean plants sprayed one day before inoculation, read-out: control compared to the untreated check (efficacy from disease severity rating).
Assay type: in vivo
Experimental: Compounds were dissolved in 2% DMSO/Acetone and then diluted with water containing emulsifier to the desired test concentration. To test the preventive activity of compounds, healthy young soybean plants, raised in the greenhouse, were sprayed with the active compound solution at the stated application rates inside spray cabinets using hallowcone nozzles. One day after treatment, the plants were inoculated with a suspension containing 2.1×10^6 Phakopsora pachyrhizi spores. The inoculated plants were then kept in the greenhouse chamber at 25° C. temperature and 90% relative humidity for disease expression. A visual assessment of the compound's performance was carried out by rating the disease severity (0-100% scale) on treated plants on 3, 7, 10 and 15 days after application. Efficacy (% control) of the compounds was calculated by comparing the disease rating in the treatment with the one of the untreated control. The treated plants were also assessed for plant compatibility by recording symptoms like necrosis, chlorosis and stunting.
`CNC(=O)c1ccc(Cc2noc(C(F)(F)F)n2)cc1` [Compound 40, N-methyl-4-((5-(trifluoromethyl)-1,2,4-oxadiazol-3-yl)methyl)benzamide] was tested, and the pest or weed control at 500 ppm was over 70%. With `C=CCN(C)C(=O)c1ccc(Cc2noc(C(F)(F)F)n2)cc1` [Compound 49, N-allyl-N-methyl-4-((5-(trifluoromethyl)-1,2,4-oxadiazol-3-yl)methyl)benzamide] the pest or weed control at 500 ppm was over 70%. `COCCNC(=O)c1ccc(Cc2noc(C(F)(F)F)n2)cc1` [Compound 42, N-(2-methoxyethyl)-4-((5-(trifluoromethyl)-1,2,4-oxadiazol-3-yl)methyl)benzamide] was tested, and the pest or weed control at 500 ppm was over 70%. `O=C(c1ccc(Cc2noc(C(F)(F)F)n2)cc1)N1CCOCC1` [Compound 13, morpholino(4-((5-(trifluoromethyl)-1,2,4-oxadiazol-3-yl)methyl)phenyl)methanone] showed a pest or weed control at 500 ppm of over 70%. `O=C(Nc1ccc(C(=O)c2noc(C(F)(F)F)n2)cc1)c1ccncc1` [Compound 27, N-(4-(5-(trifluoromethyl)-1,2,4-oxadiazole-3-carbonyl)phenyl)isonicotinamide] showed a pest or weed control at 500 ppm of over 70%. `CC(C)(C)OC(=O)Nc1ccc(C(=O)c2noc(C(F)(F)F)n2)cc1` [Compound 29, tert-butyl (4-(5-(trifluoromethyl)-1,2,4-oxadiazole-3-carbonyl)phenyl)carbamate] was tested, and the pest or weed control at 500 ppm was over 70%. `O=C(NCC1CC1)c1ccc(Cc2noc(C(F)(F)F)n2)cc1` [Compound 47, N-(cyclopropylmethyl)-4-((5-(trifluoromethyl)-1,2,4-oxadiazol-3-yl)methyl)benzamide] showed a pest or weed control at 500 ppm of over 70%. For `COc1ccc(Cl)c(NC(=O)c2ccc(Cc3noc(C(F)(F)F)n3)cc2)c1` [Compound 18, N-(2-chloro-5-methoxyphenyl)-4-((5-(trifluoromethyl)-1,2,4-oxadiazol-3-yl)methyl)benzamide], the pest or weed control at 500 ppm was over 70%. `O=C(Nc1ccc(Cc2noc(C(F)(F)F)n2)cc1)c1ccc(C(F)(F)F)cc1` [Compound 8, 4-(trifluoromethyl)-N-(4-((5-(trifluoromethyl)-1,2,4-oxadiazol-3-yl)methyl)phenyl)benzamide] gave a pest or weed control at 500 ppm of over 70%. For `O=C(c1ccc(Cc2noc(C(F)(F)F)n2)cc1)N1CCCC1` [Compound 45, pyrrolidin-1-yl(4-((5-(trifluoromethyl)-1,2,4-oxadiazol-3-yl)methyl)phenyl)methanone], the pest or weed control at 500 ppm was over 70%. For `CC(C)(C)OC(=O)Nc1ccc(C(F)(F)c2noc(C(F)(F)F)n2)cc1` [Compound 30, tert-butyl (4-(difluoro(5-(trifluoromethyl)-1,2,4-oxadiazol-3-yl)methyl)phenyl)carbamate], the pest or weed control at 500 ppm was over 70%. `O=C(Nc1ccc(Cc2noc(C(F)(F)F)n2)cc1)c1ccc(F)cc1` [Compound 9, 4-fluoro-N-(4-((5-(trifluoromethyl)-1,2,4-oxadiazol-3-yl)methyl)phenyl)benzamide] gave a pest or weed control at 500 ppm of over 70%. Compound `O=C(Nc1ccc(Cc2noc(C(F)(F)F)n2)cc1)c1ccccn1` [Compound 3, N-(4-((5-(trifluoromethyl)-1,2,4-oxadiazol-3-yl)methyl)phenyl)picolinamide] has a pest or weed control at 500 ppm of over 70%. For `CCN(C)C(=O)c1ccc(Cc2noc(C(F)(F)F)n2)cc1` [Compound 48, N-ethyl-N-methyl-4-((5-(trifluoromethyl)-1,2,4-oxadiazol-3-yl)methyl)benzamide], the pest or weed control at 500 ppm was over 70%. In the case of `O=C(NCc1ccc(F)cc1)c1ccc(Cc2noc(C(F)(F)F)n2)cc1` [Compound 12, N-(4-fluorobenzyl)-4-((5-(trifluoromethyl)-1,2,4-oxadiazol-3-yl)methyl)benzamide], the pest or weed control at 500 ppm is reported as over 70%. `O=C(Cc1ccccc1)Nc1ccc(Cc2noc(C(F)(F)F)n2)cc1` [Compound 6, 2-phenyl-N-(4-((5-(trifluoromethyl)-1,2,4-oxadiazol-3-yl)methyl)phenyl)acetamide] showed a pest or weed control at 500 ppm of over 70%. `Fc1ccc(NC(=S)c2ccc(Cc3noc(C(F)(F)F)n3)cc2)cc1` [Compound 67, N-(4-fluorophenyl)-4-((5-(trifluoromethyl)-1,2,4-oxadiazol-3-yl)methyl)benzothioamide] showed a pest or weed control at 500 ppm of over 70%. Compound `COCCN(C)C(=O)c1ccc(Cc2noc(C(F)(F)F)n2)cc1` [Compound 46, N-(2-methoxyethyl)-N-methyl-4-((5-(trifluoromethyl)-1,2,4-oxadiazol-3-yl)methyl)benzamide] has a pest or weed control at 500 ppm of over 70%. For `Cc1ccc(C(=O)Nc2ccc(C(F)(F)c3noc(C(F)(F)F)n3)cc2)cc1` [Compound 38, N-(4-(difluoro(5-(trifluoromethyl)-1,2,4-oxadiazol-3-yl)methyl)phenyl)-4-methylbenzamide], the pest or weed control at 500 ppm was over 70%. In the case of `O=C(Nc1ccc(Cc2noc(C(F)(F)F)n2)cc1)c1ccncc1` [Compound 5, N-(4-((5-(trifluoromethyl)-1,2,4-oxadiazol-3-yl)methyl)phenyl)isonicotinamide], the pest or weed control at 500 ppm is reported as over 70%. For `C#CCNC(=O)c1ccc(Cc2noc(C(F)(F)F)n2)cc1` [Compound 50, N-(prop-2-yn-1-yl)-4-((5-(trifluoromethyl)-1,2,4-oxadiazol-3-yl)methyl)benzamide], the pest or weed control at 500 ppm was over 70%. Work on `O=S(=O)(Nc1ccc(Cc2noc(C(F)(F)F)n2)cc1)c1ccccc1` [Compound 68, N-(4-((5-(trifluoromethyl)-1,2,4-oxadiazol-3-yl)methyl)phenyl)benzenesulfonamide] yielded a pest or weed control at 500 ppm of over 70%. Compound `O=C(Nc1ccc(Cc2noc(C(F)(F)F)n2)cc1)c1ccc(Cl)cc1` [Compound 10, 4-chloro-N-(4-((5-(trifluoromethyl)-1,2,4-oxadiazol-3-yl)methyl)phenyl)benzamide] has a pest or weed control at 500 ppm of over 70%. In the case of `O=C(Nc1ccc(Cc2noc(C(F)(F)F)n2)cc1)c1cccnc1` [Compound 4, N-(4-((5-(trifluoromethyl)-1,2,4-oxadiazol-3-yl)methyl)phenyl)nicotinamide], the pest or weed control at 500 ppm is reported as over 70%. Compound `O=C(Nc1ccc(Cc2noc(C(F)(F)F)n2)cc1)c1ccccc1` [Compound 2, N-(4-((5-(trifluoromethyl)-1,2,4-oxadiazol-3-yl)methyl)phenyl)benzamide] has a pest or weed control at 500 ppm of over 70%.

These compounds were tested on Alternaria solani (assay: Alternaria solani (early blight of tomato/potato) in vitro radial growth test on Potato Dextrose Agar). Details: 168 h, radial growth after seven days at 25° C., 60% relative humidity, read-out: control compared to the untreated check.
Assay type: cell-based
In the case of `O=C(NCc1cccnc1)c1ccc(Cc2noc(C(F)(F)F)n2)cc1` [Compound 16, N-(pyridin-3-ylmethyl)-4-((5-(trifluoromethyl)-1,2,4-oxadiazol-3-yl)methyl)benzamide], the inhibition of growth at 300 ppm is reported as over 70%. Work on `Cc1ccc(C(C)NC(=O)c2ccc(Cc3noc(C(F)(F)F)n3)cc2)cc1` (stereo not drawn) [Compound 15, N-(1-(p-tolyl)ethyl)-4-((5-(trifluoromethyl)-1,2,4-oxadiazol-3-yl)methyl)benzamide] yielded an inhibition of growth at 300 ppm of over 70%. Work on `O=C(Nc1cccc(Cl)c1)c1ccc(Cc2noc(C(F)(F)F)n2)cc1` [Compound 55, N-(3-chlorophenyl)-4-((5-(trifluoromethyl)-1,2,4-oxadiazol-3-yl)methyl)benzamide] yielded an inhibition of growth at 300 ppm of over 70%. `O=C(NCCN1CCOCC1)c1ccc(Cc2noc(C(F)(F)F)n2)cc1` [Compound 21, N-(2-morpholinoethyl)-4-((5-(trifluoromethyl)-1,2,4-oxadiazol-3-yl)methyl)benzamide] was tested, and the inhibition of growth at 300 ppm was over 70%. Compound `COc1ccccc1NC(=O)c1ccc(Cc2noc(C(F)(F)F)n2)cc1` [Compound 19, N-(2-methoxyphenyl)-4-((5-(trifluoromethyl)-1,2,4-oxadiazol-3-yl)methyl)benzamide] has an inhibition of growth at 300 ppm of over 70%. `O=C(NCc1ccc(F)cc1)c1ccc(Cc2noc(C(F)(F)F)n2)cc1` [Compound 12, N-(4-fluorobenzyl)-4-((5-(trifluoromethyl)-1,2,4-oxadiazol-3-yl)methyl)benzamide] was tested, and the inhibition of growth at 300 ppm was over 70%. Compound `O=C(Cc1ccccc1)Nc1ccc(Cc2noc(C(F)(F)F)n2)cc1` [Compound 6, 2-phenyl-N-(4-((5-(trifluoromethyl)-1,2,4-oxadiazol-3-yl)methyl)phenyl)acetamide] has an inhibition of growth at 300 ppm of over 70%. `O=C(Nc1cncc(Cl)c1)c1ccc(Cc2noc(C(F)(F)F)n2)cc1` [Compound 17, N-(5-chloropyridin-3-yl)-4-((5-(trifluoromethyl)-1,2,4-oxadiazol-3-yl)methyl)benzamide] showed an inhibition of growth at 300 ppm of over 70%. Work on `Cc1cccc(NC(=S)c2ccc(Cc3noc(C(F)(F)F)n3)cc2)c1` [Compound 64, N-(m-tolyl)-4-((5-(trifluoromethyl)-1,2,4-oxadiazol-3-yl)methyl)benzothioamide] yielded an inhibition of growth at 300 ppm of over 70%.

These compounds were tested on Colletotrichum capsici (assay: Colletotrichum capsici (anthracnose) in vitro radial growth test on Potato Dextrose Agar). Details: 300 ppm; radial growth after seven days at 25° C., 60% relative humidity.
Assay type: cell-based
`O=C(Cc1ccccc1)Nc1ccc(Cc2noc(C(F)(F)F)n2)cc1` [Compound 6, 2-phenyl-N-(4-((5-(trifluoromethyl)-1,2,4-oxadiazol-3-yl)methyl)phenyl)acetamide] was tested, and the “control compared to the untreated check” value was over 70%.
